# Tested on: southern armyworm (Spodoptera eridania)
# Assay: Test B.7: control of southern armyworm, leaf-dip on lima bean leaves, larval mortality
# Assay type: in vivo
# Conditions: single active, neonate larvae, 4 days
# Method: For evaluating control of southern armyworm (Spodoptera eridania) the test unit consists of Petri dishes containing eight-day-old Henderson bush lima bean leaves and 10 neonate S. eridania larvae.
# The compounds or mixtures are formulated using a solution containing […] water and 0.05 vol % of a surfactant (Kinetic). Leaves are dipped into different concentrations of formulated compounds or mixtures and allowed to dry. Four replications are performed.
# For experimental mixtures in these tests identical volumes of both mixing partners at the desired concentrations respectively, are mixed together.
# After application, Petri dishes are incubated in the dark at 26±1° C., for 4 days. Larval mortality is visually assessed.
# Metaflumizone at rates of 2.5 and 5.0 kg ai/ha and Streptomyces galbus strain M1064 at rates of 0.69. 1.39, and 2.79 kg ai/ha were tested singly and in combination for control of southern armyworm, Spodoptera eridania in the laboratory.
smiles,measurement,setting,value
"N#Cc1ccc(CC(=NNC(=O)Nc2ccc(OC(F)(F)F)cc2)c2cccc(C(F)(F)F)c2)cc1 (mixture of isomers) [Metaflumizone, metaflumizone]",Observed Mortality,application rate 2.5 kg ai/ha,15.0%
same,Observed Mortality,application rate 5.0 kg ai/ha,47.5%

# From patent US20140017216A1, “PESTICIDAL MIXTURES” (BAYER CROPSCIENCE LP, priority 2011, published 2014)
